Measured values from ChEMBL document CHEMBL5241112, “Insights into the recent progress in the medicinal chemistry of pyranopyrimidine analogs” (RSC Med Chem, 2022).
Values after ≈ are worked out from the molar mass of the structure shown.

Each molecule was assayed on Pseudomonas aeruginosa (assay: Antimicrobial activity against Pseudomonas aeruginosa ATCC 27853 assessed as diameter of inhibition zone at 20 mg/ml incubated for 24 hrs by disk diffusion method). Conditions: read-out: DIZ.
Format: functional
`COc1ccccc1C1C(C#N)=C(N)Oc2[nH]c(=O)[nH]c(=O)c21` (configuration not stated) was tested, and the zone of inhibition at 20000 µg/mL was 7 mm. With `N#CC1=C(N)Oc2[nH]c(=O)[nH]c(=O)c2C1c1ccc([N+](=O)[O-])cc1` (configuration not stated) the zone of inhibition at 20000 µg/mL was 3 mm. `COc1ccc(C2C(C#N)=C(N)Oc3[nH]c(=O)[nH]c(=O)c32)cc1OC` (configuration not stated) gave a zone of inhibition at 20000 µg/mL of 4 mm. `N#CC1=C(N)Oc2[nH]c(=O)[nH]c(=O)c2C1c1ccccc1[N+](=O)[O-]` (configuration not stated) was tested, and the zone of inhibition at 20000 µg/mL was 9 mm. For `N#CC1=C(N)Oc2[nH]c(=O)[nH]c(=O)c2C1c1cccc(O)c1` (configuration not stated), the zone of inhibition at 20000 µg/mL was 15 mm. In the case of `N#CC1=C(N)Oc2[nH]c(=O)[nH]c(=O)c2C1c1ccc(O)cc1` (configuration not stated), the zone of inhibition at 20000 µg/mL is reported as 15 mm. Work on `N#CC1=C(N)Oc2[nH]c(=O)[nH]c(=O)c2C1c1ccccc1` (configuration not stated) yielded a zone of inhibition at 20000 µg/mL of 14 mm.

The molecules below were run on Klebsiella pneumoniae (assay: Antimicrobial activity against Klebsiella pneumoniae UC57 assessed as diameter of inhibition zone at 20 mg/ml incubated for 24 hrs by disk diffusion method). Conditions: read-out: DIZ.
Format: functional
`COc1ccccc1C1C(C#N)=C(N)Oc2[nH]c(=O)[nH]c(=O)c21` (configuration not stated) gave a zone of inhibition at 20000 µg/mL of 13 mm. `N#CC1=C(N)Oc2[nH]c(=O)[nH]c(=O)c2C1c1ccc([N+](=O)[O-])cc1` (configuration not stated) was tested, and the zone of inhibition at 20000 µg/mL was 4 mm. Work on `COc1ccc(C2C(C#N)=C(N)Oc3[nH]c(=O)[nH]c(=O)c32)cc1OC` (configuration not stated) yielded a zone of inhibition at 20000 µg/mL of 14 mm. For `N#CC1=C(N)Oc2[nH]c(=O)[nH]c(=O)c2C1c1ccccc1[N+](=O)[O-]` (configuration not stated), the zone of inhibition at 20000 µg/mL was 6 mm. `N#CC1=C(N)Oc2[nH]c(=O)[nH]c(=O)c2C1c1cccc(O)c1` (configuration not stated) was tested, and the zone of inhibition at 20000 µg/mL was 8 mm. For `N#CC1=C(N)Oc2[nH]c(=O)[nH]c(=O)c2C1c1ccc(O)cc1` (configuration not stated), the zone of inhibition at 20000 µg/mL was 10 mm. `N#CC1=C(N)Oc2[nH]c(=O)[nH]c(=O)c2C1c1ccccc1` (configuration not stated) was tested, and the zone of inhibition at 20000 µg/mL was 5 mm.

Each molecule was assayed on Bacillus subtilis (assay: Antibacterial activity against Bacillus subtilis assessed as diameter of inhibition zone). Conditions: not given.
Format: functional
For `N#CC1=C(N)Oc2[nH]c(=O)[nH]c(=O)c2C1c1ccccc1Cl` (configuration not stated), the “diameter of the inhibition zone (DIZ)” value was 18 mm. With `N#CC1=C(N)Oc2[nH]c(=O)[nH]c(=O)c2C1c1ccc([N+](=O)[O-])cc1` (configuration not stated) the “diameter of the inhibition zone (DIZ)” value was 18 mm. `COc1ccc(C2C(C#N)=C(N)Oc3[nH]c(=O)[nH]c(=O)c32)cc1OC` (configuration not stated) was tested, and the “diameter of the inhibition zone (DIZ)” value was 10 mm. With `N#CC1=C(N)Oc2[nH]c(=O)[nH]c(=O)c2C1c1cccc(Br)c1` (configuration not stated) the “diameter of the inhibition zone (DIZ)” value was 18 mm. For `N#CC1=C(N)Oc2[nH]c(=O)[nH]c(=O)c2C1c1ccc(F)cc1` (configuration not stated), the “diameter of the inhibition zone (DIZ)” value was 10 mm. In the case of `N#CC1=C(N)Oc2[nH]c(=O)[nH]c(=O)c2C1c1ccccc1` (configuration not stated), the “diameter of the inhibition zone (DIZ)” value is reported as 10 mm.

What follows are molecules tested on Staphylococcus aureus (assay: Antibacterial activity against Staphylococcus aureus assessed as diameter of inhibition zone). Conditions: not given.
Format: functional
For `N#CC1=C(N)Oc2[nH]c(=O)[nH]c(=O)c2C1c1ccccc1Cl` (configuration not stated), the “diameter of the inhibition zone (DIZ)” value was 20 mm. For `N#CC1=C(N)Oc2[nH]c(=O)[nH]c(=O)c2C1c1ccc([N+](=O)[O-])cc1` (configuration not stated), the “diameter of the inhibition zone (DIZ)” value was 16 mm. For `N#CC1=C(N)Oc2[nH]c(=O)[nH]c(=O)c2C1c1cccc(Br)c1` (configuration not stated), the “diameter of the inhibition zone (DIZ)” value was 16 mm. For `N#CC1=C(N)Oc2[nH]c(=O)[nH]c(=O)c2C1c1ccc(O)cc1` (configuration not stated), the “diameter of the inhibition zone (DIZ)” value was 10 mm. For `N#CC1=C(N)Oc2[nH]c(=O)[nH]c(=O)c2C1c1ccccc1` (configuration not stated), the “diameter of the inhibition zone (DIZ)” value was 8 mm.

The molecules below were run on Staphylococcus aureus (assay: Antimicrobial activity against Staphylococcus aureus NCTC7447 assessed as diameter of inhibition zone at 20 mg/ml incubated for 24 hrs by disk diffusion method). Conditions: read-out: DIZ.
Format: functional
`COc1ccccc1C1C(C#N)=C(N)Oc2[nH]c(=O)[nH]c(=O)c21` (configuration not stated) showed a zone of inhibition at 20000 µg/mL of 15 mm. Work on `N#CC1=C(N)Oc2[nH]c(=O)[nH]c(=O)c2C1c1ccc([N+](=O)[O-])cc1` (configuration not stated) yielded a zone of inhibition at 20000 µg/mL of 4 mm. Molecule `COc1ccc(C2C(C#N)=C(N)Oc3[nH]c(=O)[nH]c(=O)c32)cc1OC` (configuration not stated) has a zone of inhibition at 20000 µg/mL of 8 mm. In the case of `N#CC1=C(N)Oc2[nH]c(=O)[nH]c(=O)c2C1c1ccccc1[N+](=O)[O-]` (configuration not stated), the zone of inhibition at 20000 µg/mL is reported as 5 mm. Work on `N#CC1=C(N)Oc2[nH]c(=O)[nH]c(=O)c2C1c1cccc(O)c1` (configuration not stated) yielded a zone of inhibition at 20000 µg/mL of 15 mm. `N#CC1=C(N)Oc2[nH]c(=O)[nH]c(=O)c2C1c1ccc(O)cc1` (configuration not stated) showed a zone of inhibition at 20000 µg/mL of 15 mm. `N#CC1=C(N)Oc2[nH]c(=O)[nH]c(=O)c2C1c1ccccc1` (configuration not stated) was tested, and the zone of inhibition at 20000 µg/mL was 8 mm.

The molecules below were run on Escherichia coli (assay: Antimicrobial activity against Escherichia coli ATCC 14169 assessed as diameter of inhibition zone at 20 mg/ml incubated for 24 hrs by disk diffusion method). Conditions: read-out: DIZ.
Format: functional
Molecule `COc1ccccc1C1C(C#N)=C(N)Oc2[nH]c(=O)[nH]c(=O)c21` (configuration not stated) has a zone of inhibition at 20000 µg/mL of 9 mm. Molecule `N#CC1=C(N)Oc2[nH]c(=O)[nH]c(=O)c2C1c1ccc([N+](=O)[O-])cc1` (configuration not stated) has a zone of inhibition at 20000 µg/mL of 12 mm. For `COc1ccc(C2C(C#N)=C(N)Oc3[nH]c(=O)[nH]c(=O)c32)cc1OC` (configuration not stated), the zone of inhibition at 20000 µg/mL was 8 mm. Molecule `N#CC1=C(N)Oc2[nH]c(=O)[nH]c(=O)c2C1c1ccccc1[N+](=O)[O-]` (configuration not stated) has a zone of inhibition at 20000 µg/mL of 11 mm. In the case of `N#CC1=C(N)Oc2[nH]c(=O)[nH]c(=O)c2C1c1cccc(O)c1` (configuration not stated), the zone of inhibition at 20000 µg/mL is reported as 14 mm. Molecule `N#CC1=C(N)Oc2[nH]c(=O)[nH]c(=O)c2C1c1ccc(O)cc1` (configuration not stated) has a zone of inhibition at 20000 µg/mL of 15 mm. For `N#CC1=C(N)Oc2[nH]c(=O)[nH]c(=O)c2C1c1ccccc1` (configuration not stated), the zone of inhibition at 20000 µg/mL was 13 mm.

These molecules were tested on Mycobacterium tuberculosis (assay: Antitubercular activity against Mycobacterium tuberculosis H37Rv assessed as bacterial growth inhibition incubated for 24 hrs by MABA assay). Conditions: not given.
Format: functional
`O=c1nc2c3c([nH]1)Oc1cc(O)ccc1C3c1c(c3ccccc3oc1=O)O2` (configuration not stated) showed an MIC of 50 µg/mL (≈ 134 µM). `NC(=O)c1cnccn1` [PYRAZINAMIDE] showed an MIC of 3.12 µg/mL (≈ 25.4 µM). Work on `O=c1nc2c3c([nH]1)Oc1ccc4ccccc4c1C3c1c(c3ccccc3oc1=O)O2` (configuration not stated) yielded an MIC of 25 µg/mL (≈ 61.2 µM). `COc1ccc2c(c1)C1c3c(nc(=O)[nH]c3O2)Oc2c1c(=O)oc1ccccc21` (configuration not stated) was tested, and the MIC was 50 µg/mL (≈ 129 µM). In the case of `O=c1nc2c3c([nH]1)Oc1c(O)cccc1C3c1c(c3ccccc3oc1=O)O2` (configuration not stated), the MIC is reported as 50 µg/mL (≈ 134 µM). Work on `O=c1nc2c3c([nH]1)Oc1ccc(O)cc1C3c1c(c3ccccc3oc1=O)O2` (configuration not stated) yielded an MIC of 50 µg/mL (≈ 134 µM). In the case of `O=c1nc2c3c([nH]1)Oc1ccc(Cl)cc1C3c1c(c3ccccc3oc1=O)O2` (configuration not stated), the MIC is reported as 6.25 µg/mL (≈ 15.9 µM). `O=c1nc2c3c([nH]1)Oc1c(Cl)cc(Cl)cc1C3c1c(c3ccccc3oc1=O)O2` (configuration not stated) gave an MIC of 50 µg/mL (≈ 117 µM). `O=c1nc2c3c([nH]1)Oc1ccccc1C3c1c(c3ccccc3oc1=O)O2` (configuration not stated) gave an MIC of 12.5 µg/mL (≈ 34.9 µM).

Each molecule was assayed on Escherichia coli (assay: Antibacterial activity against Escherichia coli assessed as diameter of inhibition zone). Conditions: not given.
Format: functional
`N#CC1=C(N)Oc2[nH]c(=O)[nH]c(=O)c2C1c1ccccc1Cl` (configuration not stated) was tested, and the “diameter of the inhibition zone (DIZ)” value was 14 mm. `N#CC1=C(N)Oc2[nH]c(=O)[nH]c(=O)c2C1c1ccc([N+](=O)[O-])cc1` (configuration not stated) was tested, and the “diameter of the inhibition zone (DIZ)” value was 16 mm. For `N#CC1=C(N)Oc2[nH]c(=O)[nH]c(=O)c2C1c1cccc(Br)c1` (configuration not stated), the “diameter of the inhibition zone (DIZ)” value was 14 mm. With `N#CC1=C(N)Oc2[nH]c(=O)[nH]c(=O)c2C1c1ccc(F)cc1` (configuration not stated) the “diameter of the inhibition zone (DIZ)” value was 8 mm. In the case of `N#CC1=C(N)Oc2[nH]c(=O)[nH]c(=O)c2C1c1ccc(O)cc1` (configuration not stated), the “diameter of the inhibition zone (DIZ)” value is reported as 10 mm.

The molecules below were run on Bacillus cereus (assay: Antimicrobial activity against Bacillus cereus ATCC14579 assessed as diameter of inhibition zone at 20 mg/ml incubated for 24 hrs by disk diffusion method). Conditions: read-out: DIZ.
Format: functional
`COc1ccccc1C1C(C#N)=C(N)Oc2[nH]c(=O)[nH]c(=O)c21` (configuration not stated) was tested, and the zone of inhibition at 20000 µg/mL was 11 mm. With `N#CC1=C(N)Oc2[nH]c(=O)[nH]c(=O)c2C1c1ccc([N+](=O)[O-])cc1` (configuration not stated) the zone of inhibition at 20000 µg/mL was 11 mm. `COc1ccc(C2C(C#N)=C(N)Oc3[nH]c(=O)[nH]c(=O)c32)cc1OC` (configuration not stated) showed a zone of inhibition at 20000 µg/mL of 9 mm. `N#CC1=C(N)Oc2[nH]c(=O)[nH]c(=O)c2C1c1ccccc1[N+](=O)[O-]` (configuration not stated) showed a zone of inhibition at 20000 µg/mL of 10 mm. `N#CC1=C(N)Oc2[nH]c(=O)[nH]c(=O)c2C1c1cccc(O)c1` (configuration not stated) was tested, and the zone of inhibition at 20000 µg/mL was 10 mm. In the case of `N#CC1=C(N)Oc2[nH]c(=O)[nH]c(=O)c2C1c1ccc(O)cc1` (configuration not stated), the zone of inhibition at 20000 µg/mL is reported as 14 mm. `N#CC1=C(N)Oc2[nH]c(=O)[nH]c(=O)c2C1c1ccccc1` (configuration not stated) showed a zone of inhibition at 20000 µg/mL of 12 mm.

The molecules below were run on Salmonella typhimurium (assay: Antibacterial activity against Salmonella typhimurium assessed as diameter of inhibition zone). Conditions: not given.
Format: functional, Salmonella enterica subsp. enterica serovar Typhimurium
In the case of `N#CC1=C(N)Oc2[nH]c(=O)[nH]c(=O)c2C1c1ccccc1Cl` (configuration not stated), the “diameter of the inhibition zone (DIZ)” value is reported as 18 mm. For `N#CC1=C(N)Oc2[nH]c(=O)[nH]c(=O)c2C1c1ccc([N+](=O)[O-])cc1` (configuration not stated), the “diameter of the inhibition zone (DIZ)” value was 14 mm. `COc1ccc(C2C(C#N)=C(N)Oc3[nH]c(=O)[nH]c(=O)c32)cc1OC` (configuration not stated) was tested, and the “diameter of the inhibition zone (DIZ)” value was 8 mm. With `N#CC1=C(N)Oc2[nH]c(=O)[nH]c(=O)c2C1c1cccc(Br)c1` (configuration not stated) the “diameter of the inhibition zone (DIZ)” value was 16 mm. `N#CC1=C(N)Oc2[nH]c(=O)[nH]c(=O)c2C1c1ccc(F)cc1` (configuration not stated) was tested, and the “diameter of the inhibition zone (DIZ)” value was 12 mm. In the case of `N#CC1=C(N)Oc2[nH]c(=O)[nH]c(=O)c2C1c1ccc(O)cc1` (configuration not stated), the “diameter of the inhibition zone (DIZ)” value is reported as 10 mm. `N#CC1=C(N)Oc2[nH]c(=O)[nH]c(=O)c2C1c1ccccc1` (configuration not stated) was tested, and the “diameter of the inhibition zone (DIZ)” value was 10 mm.
